# Assay results taken from patent US7482378B2, “Physiological cooling compositions” (Millenium Specialty Chemicals, Inc., priority 2004, dated 2009).
# Columns and labels:
# [1] = Relative cooling strength of individual coolants, organoleptic sequential dilution method versus standard 10 ppm WS-3 solution in water; format: in vivo; conditions: relative to 10 ppm WS-3 in water assigned 10.0; values accepted in the art and confirmed by expert evaluation
# Excerpt: The aqueous solutions of products for organoleptic tests were obtained by dissolving appropriate amounts of the products in propylene glycol PG and adding the PG solution to an appropriate amount of water.
# A. Cooling strength values for individual coolants. Cooling strength values used in this invention for individual coolants were those generally accepted in the art and also additionally confirmed using expert evaluations conducted by Millennium Specialty Chemicals personnel on the basis of a sequential dilution method, i.e., a controlled dilution of samples to the concentration where their strength is about equal to the standard solution of WS-3. For purposes of Examples 55-60, a 10 ppm solution of WS-3 in water was used as the standard solution and was assigned a standardized cooling strength value of 10.0. The corresponding relative cooling strengths for the individual cooling agents were then assigned based upon an organoleptic determination of the approximate concentration of cooling agent that was required to provide about the same cooling strength as the standardized 10 ppm solution of WS-3.
melting point [°C],Compound,Relative cooling strength [1]
–,"CC(C)[C@@H]1CC[C@@H](C)C[C@H]1OC(=O)CCCC(=O)O [MMG, monomenthyl glutarate]",about 3.5
–,"CC1CCC(C(C)C)C(OC(=O)C(C)O)C1 (stereo not drawn) [Menthyl Lactate, l-Menthyl ester of lactic acid]",about 2.9
146 to 148,"CNC(=O)C1C(C)CCCC1(C)C (stereo not shown) [N,2,2,6-Tetramethylcyclohexane-1-carboxamide]",about 1.0
–,"CCNC(=O)[C@@H]1C[C@H](C)CC[C@H]1C(C)C [WS-3, N-ethyl-3-p-menthane carboxamide]",10.0
–,"CCOC(=O)CNC(=O)C1CC(C)CCC1C(C)C (stereo not shown) [WS-5, N-(ethoxycarbonylmethyl)-3-p-menthane carboxamide]",about 16.7
147 to 150,"CC(C)[C@@H]1CC[C@@H](C)C[C@H]1C(=O)NC(C)(C)C [WS-14, N-tert-butyl-3-p-menthane carboxamide]",about 5.0
–,"CNC(=O)C(C)(C(C)C)C(C)C [WS-23, N,2,3-trimethyl-2-isopropyl butanamide]",about 5.0
–,Glyceryl ether of p-menthane-3-carboxylic acid [WS-30],about 1.5
